Source: patent US20110195900A1, “PEPTIDIC PTH RECEPTOR AGONISTS” (FERRING B.V., priority 2008, published 2011)
pEC50: −log10 of the molar value. Non-standard residues stand in square brackets, D forms with d. Residues, ends and D or L forms follow the SMILES beside them. 1Nal = N[C@@H](Cc1cccc2ccccc12)C(=O)O; β3hI = CC[C@H](C)[C@H](N)CC(=O)O; Nle = CCCC[C@H](N)C(=O)O

Tests used:
human PTH-2 receptor = biological target: T1, human PTH-2 receptor (Homo sapiens, UniProt P49190); test: Luciferase-based transcriptional reporter gene assay for selectivity; format: cell-based
T1 construct: expressed in transfected cells
T1 sequence (P49190 25-550): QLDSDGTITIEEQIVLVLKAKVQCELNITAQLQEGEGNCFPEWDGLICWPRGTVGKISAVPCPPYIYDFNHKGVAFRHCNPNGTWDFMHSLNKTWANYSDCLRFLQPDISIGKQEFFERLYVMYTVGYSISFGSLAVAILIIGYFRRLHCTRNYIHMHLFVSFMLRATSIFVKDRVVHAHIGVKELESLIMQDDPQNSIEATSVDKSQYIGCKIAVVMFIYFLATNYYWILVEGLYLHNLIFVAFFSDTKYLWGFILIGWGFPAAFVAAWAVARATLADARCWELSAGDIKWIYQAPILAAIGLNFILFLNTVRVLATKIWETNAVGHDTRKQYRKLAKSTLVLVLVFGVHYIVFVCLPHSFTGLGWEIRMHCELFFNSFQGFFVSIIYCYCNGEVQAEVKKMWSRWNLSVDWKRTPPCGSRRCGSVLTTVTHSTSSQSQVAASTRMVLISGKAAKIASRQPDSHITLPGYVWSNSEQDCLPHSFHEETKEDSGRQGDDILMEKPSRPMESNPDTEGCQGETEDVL
Protocol: Agonist activity of compounds on the human PTH-1 receptor was determined in a reporter gene assay by transiently transfecting HEK-293 cells with plasmids encoding human PTH-1 receptor under control of the SV40 promoter and a luciferase reporter gene under control of cAMP responsive elements (CRE). See Himmler et al, J. Recept. Res. 13 (1993) 79-94, for further guidance on this assay. Transfected cells were exposed to serial dilutions of compounds for 4-5 hours followed by lysis of cells, determination of luciferase activity, and determination of compound efficacies and EC50 values through non-linear regression.
PTH (1-34) was used as an internal control in each experiment and compounds were tested in at least three independent experiments. To determine selectivity, compounds were tested in luciferase-based transcriptional reporter gene assays expressing the human PTH-2 receptor.

human PTH-1 receptor = biological target: T2, human PTH-1 receptor (Homo sapiens, UniProt Q03431); test: Reporter gene assay (CRE-luciferase) for agonist activity in transiently transfected HEK-293 cells; format: cell-based; conditions: for hPTHR-2/hPTHR-1: Table 3, selectivity for hPTH-1 receptor over hPTH-2 receptor
T2 construct: expressed in transfected cells; host or cells: HEK-293
T2 sequence (Q03431 27-593): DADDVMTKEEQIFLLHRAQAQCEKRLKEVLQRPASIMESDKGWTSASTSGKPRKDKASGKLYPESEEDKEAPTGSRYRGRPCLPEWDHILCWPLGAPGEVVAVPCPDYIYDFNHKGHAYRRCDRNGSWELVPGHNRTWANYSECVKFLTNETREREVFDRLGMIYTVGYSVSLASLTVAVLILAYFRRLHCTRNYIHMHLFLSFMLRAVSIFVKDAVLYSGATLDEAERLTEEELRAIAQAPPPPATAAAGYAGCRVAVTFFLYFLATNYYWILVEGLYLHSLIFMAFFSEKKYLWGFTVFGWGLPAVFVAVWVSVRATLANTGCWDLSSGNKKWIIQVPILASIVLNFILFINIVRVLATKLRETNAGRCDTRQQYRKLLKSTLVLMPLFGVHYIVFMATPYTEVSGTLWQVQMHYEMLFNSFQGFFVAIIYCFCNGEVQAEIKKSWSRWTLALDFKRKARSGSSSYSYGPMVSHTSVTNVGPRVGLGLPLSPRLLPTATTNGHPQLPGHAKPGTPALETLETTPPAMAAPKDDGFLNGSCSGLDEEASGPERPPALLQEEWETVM
Summary of the method: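 HEK-293 cells transiently transfected with SV40-driven human PTH-1 receptor and CRE-luciferase reporter, exposed to serial compound dilutions for 4-5 h, then lysed for luciferase readout; efficacy and EC50 by non-linear regression, PTH (1-34) as internal control, n≥3. Selectivity measured in analogous human PTH-2 receptor luciferase reporter assays.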

Structure (SMILES)	pEC50 (human PTH-2 receptor)	pEC50 (human PTH-1 receptor)	hPTHR-2/hPTHR-1 (human PTH-1 receptor; ratio of EC50 values)	Selectivity hPTHR-2/hPTHR-1 (human PTH-1 receptor; Table 4 comparison data, ratio of EC50 values)
CCCC[C@H](NC(=O)[C@H](CC(C)C)NC(=O)[C@H](CCC(N)=O)NC(=O)[C@@H](NC(=O)[C@H](CCC(=O)O)NC(=O)[C@H](CO)NC(=O)[C@@H](NC(=O)[C@@H](N)CO)C(C)C)[C@@H](C)CC)C(=O)N[C@@H](Cc1c[nH]cn1)C(=O)N[C@@H](CC(N)=O)C(=O)N[C@@H](CC(C)C)C(=O)NCC(=O)N[C@@H](CCCCN)C(=O)N[C@@H](Cc1c[nH]cn1)C(=O)N[C@@H](CC(C)C)C(=O)N[C@@H](CC(N)=O)C(=O)N[C@@H](CO)C(=O)N[C@H](CC(=O)N[C@@H](CCC(=O)O)C(=O)N[C@@H](CCCNC(=N)N)C(=O)N[C@H](C(=O)N[C@@H](CCC(=O)O)C(=O)N[C@@H](Cc1cccc2ccccc12)C(=O)N[C@@H](CC(C)C)C(=O)N[C@@H](CCCNC(=N)N)C(=O)N[C@@H](CCCCN)C(=O)N[C@@H](CC(C)C)C(=O)N[C@@H](CC(C)C)C(=O)N[C@@H](CCC(N)=O)C(=O)N[C@@H](CC(=O)O)C(=O)N[C@H](C(=O)N[C@@H](Cc1c[nH]cn1)C(=O)N[C@@H](CC(N)=O)C(=O)N[C@@H](Cc1ccccc1)C(N)=O)C(C)C)C(C)C)[C@@H](C)CC [SEQ ID NO: 19, [Nle^8, β-hIle^18,1-Nal^23, Leu^27] hPTH (1-34)-NH2] (H-SVSEIQL[Nle]HNLGKHLNS[β3hI]ERVE[1Nal]LRKLLQDVHNF-NH2)	7.49	9.85	224	224
CCCC[C@H](NC(=O)[C@H](CC(C)C)NC(=O)[C@H](CCC(N)=O)NC(=O)[C@@H](NC(=O)[C@H](CCC(=O)O)NC(=O)[C@H](CO)NC(=O)[C@@H](NC(=O)[C@@H](N)CO)C(C)C)[C@@H](C)CC)C(=O)N[C@@H](Cc1c[nH]cn1)C(=O)N[C@@H](CO)C(=O)N[C@@H](CC(C)C)C(=O)NCC(=O)N[C@@H](CCCCN)C(=O)N[C@@H](Cc1c[nH]cn1)C(=O)N[C@@H](CC(C)C)C(=O)N[C@@H](CC(N)=O)C(=O)N[C@@H](CO)C(=O)N[C@H](CC(=O)N[C@@H](CCC(=O)O)C(=O)N[C@@H](CCCNC(=N)N)C(=O)N[C@H](C(=O)N[C@@H](CCC(=O)O)C(=O)N[C@@H](Cc1cccc2ccccc12)C(=O)N[C@@H](CC(C)C)C(=O)N[C@@H](CCCNC(=N)N)C(=O)N[C@@H](CCCCN)C(=O)N[C@@H](CC(C)C)C(=O)N[C@@H](CC(C)C)C(=O)N[C@@H](CCC(N)=O)C(=O)N[C@@H](CC(=O)O)C(=O)N[C@H](C(=O)N[C@@H](Cc1c[nH]cn1)C(=O)N[C@@H](CC(N)=O)C(=O)N[C@@H](Cc1ccccc1)C(N)=O)C(C)C)C(C)C)[C@@H](C)CC [SEQ ID NO: 23, [Nle^8, Ser^10, β-hIle^18,1-Nal^23, Leu^27] hPTH (1-34)-NH2] (H-SVSEIQL[Nle]HSLGKHLNS[β3hI]ERVE[1Nal]LRKLLQDVHNF-NH2)	7.77	9.74	95	–
CCCC[C@H](NC(=O)[C@H](CC(C)C)NC(=O)[C@H](CCC(N)=O)NC(=O)[C@@H](NC(=O)[C@H](CCC(=O)O)NC(=O)[C@H](CO)NC(=O)[C@@H](NC(=O)[C@@H](N)CO)C(C)C)[C@@H](C)CC)C(=O)N[C@@H](Cc1c[nH]cn1)C(=O)N[C@@H](CCC(=O)O)C(=O)N[C@@H](CC(C)C)C(=O)NCC(=O)N[C@@H](CCCCN)C(=O)N[C@@H](Cc1c[nH]cn1)C(=O)N[C@@H](CC(C)C)C(=O)N[C@@H](CC(N)=O)C(=O)N[C@@H](CO)C(=O)N[C@H](CC(=O)N[C@@H](CCC(=O)O)C(=O)N[C@@H](CCCNC(=N)N)C(=O)N[C@H](C(=O)N[C@@H](CCC(=O)O)C(=O)N[C@@H](Cc1cccc2ccccc12)C(=O)N[C@@H](CC(C)C)C(=O)N[C@@H](CCCNC(=N)N)C(=O)N[C@@H](CCCCN)C(=O)N[C@@H](CC(C)C)C(=O)N[C@@H](CC(C)C)C(=O)N[C@@H](CCC(N)=O)C(=O)N[C@@H](CC(=O)O)C(=O)N[C@H](C(=O)N[C@@H](Cc1c[nH]cn1)C(=O)N[C@@H](CC(N)=O)C(=O)N[C@@H](Cc1ccccc1)C(N)=O)C(C)C)C(C)C)[C@@H](C)CC [SEQ ID NO: 24, [Nle^8, Glu^10, β-hIle^18,1-Nal^23, Leu^27] hPTH (1-34)-NH2] (H-SVSEIQL[Nle]HELGKHLNS[β3hI]ERVE[1Nal]LRKLLQDVHNF-NH2)	8.52	9.89	24	–
CCCC[C@H](NC(=O)[C@H](CC(C)C)NC(=O)[C@H](CCC(N)=O)NC(=O)[C@@H](NC(=O)[C@H](CCC(=O)O)NC(=O)[C@H](CO)NC(=O)[C@@H](NC(=O)[C@@H](N)CO)C(C)C)[C@@H](C)CC)C(=O)N[C@@H](Cc1c[nH]cn1)C(=O)N[C@@H](CC(N)=O)C(=O)N[C@@H](CC(C)C)C(=O)NCC(=O)N[C@@H](CCCCN)C(=O)N[C@@H](Cc1c[nH]cn1)C(=O)N[C@@H](CC(C)C)C(=O)N[C@@H](CC(N)=O)C(=O)N[C@@H](CO)C(=O)N[C@H](CC(=O)N[C@@H](CCC(=O)O)C(=O)N[C@@H](CCCNC(=N)N)C(=O)N[C@H](C(=O)N[C@@H](CCC(=O)O)C(=O)N[C@@H](Cc1cccc2ccccc12)C(=O)N[C@@H](CC(C)C)C(=O)N[C@@H](CCCNC(=N)N)C(=O)N[C@@H](CCCCN)C(=O)N[C@@H](CC(C)C)C(=O)N[C@@H](CC(C)C)C(=O)N[C@@H](CCC(N)=O)C(=O)N[C@@H](Cc1c[nH]cn1)C(=O)N[C@H](C(=O)N[C@@H](Cc1c[nH]cn1)C(=O)N[C@@H](CC(N)=O)C(=O)N[C@@H](Cc1ccccc1)C(N)=O)C(C)C)C(C)C)[C@@H](C)CC [SEQ ID NO: 25, [Nle^8, β-hIle^18,1-Nal^23, Leu^27, His^30] hPTH (1-34)-NH2] (H-SVSEIQL[Nle]HNLGKHLNS[β3hI]ERVE[1Nal]LRKLLQHVHNF-NH2)	7.89	9.74	72	–
CCCC[C@H](NC(=O)[C@H](CC(C)C)NC(=O)[C@H](CCC(N)=O)NC(=O)[C@@H](NC(=O)[C@H](CCC(=O)O)NC(=O)[C@H](CO)NC(=O)[C@@H](NC(=O)[C@@H](N)CO)C(C)C)[C@@H](C)CC)C(=O)N[C@@H](Cc1c[nH]cn1)C(=O)N[C@@H](CC(N)=O)C(=O)N[C@@H](CC(C)C)C(=O)NCC(=O)N[C@@H](CCCCN)C(=O)N[C@@H](Cc1c[nH]cn1)C(=O)N[C@@H](CC(C)C)C(=O)N[C@@H](CC(N)=O)C(=O)N[C@@H](CO)C(=O)N[C@H](CC(=O)N[C@@H](CCC(=O)O)C(=O)N[C@@H](CCCNC(=N)N)C(=O)N[C@H](C(=O)N[C@@H](CCC(=O)O)C(=O)N[C@@H](Cc1cccc2ccccc12)C(=O)N[C@@H](CC(C)C)C(=O)N[C@@H](CCCNC(=N)N)C(=O)N[C@@H](CCCCN)C(=O)N[C@@H](CC(C)C)C(=O)N[C@@H](CC(C)C)C(=O)N[C@@H](CCC(N)=O)C(=O)N[C@@H](CC(=O)O)C(=O)N[C@H](C(=O)N[C@@H](Cc1c[nH]cn1)C(=O)N[C@@H](CCCCN)C(=O)N[C@@H](Cc1ccccc1)C(N)=O)C(C)C)C(C)C)[C@@H](C)CC [SEQ ID NO: 28, [Nle^8, β-hIle^18,1-Nal^23, Leu^27, Lys^33] hPTH (1-34)-NH2] (H-SVSEIQL[Nle]HNLGKHLNS[β3hI]ERVE[1Nal]LRKLLQDVHKF-NH2)	7.49	–	209	–
CCCC[C@H](NC(=O)[C@H](CC(C)C)NC(=O)[C@H](CCC(N)=O)NC(=O)[C@@H](NC(=O)[C@H](CCC(=O)O)NC(=O)[C@H](CO)NC(=O)[C@@H](NC(=O)[C@@H](N)CO)C(C)C)[C@@H](C)CC)C(=O)N[C@@H](Cc1c[nH]cn1)C(=O)N[C@@H](CC(N)=O)C(=O)N[C@@H](CC(C)C)C(=O)NCC(=O)N[C@@H](CCCCN)C(=O)N[C@@H](Cc1c[nH]cn1)C(=O)N[C@@H](CC(C)C)C(=O)N[C@@H](CC(N)=O)C(=O)N[C@@H](CO)C(=O)N[C@H](CC(=O)N[C@@H](CCC(=O)O)C(=O)N[C@@H](CCCNC(=N)N)C(=O)N[C@H](C(=O)N[C@@H](CCC(=O)O)C(=O)N[C@@H](Cc1cccc2ccccc12)C(=O)N[C@@H](CC(C)C)C(=O)N[C@@H](CCCNC(=N)N)C(=O)N[C@@H](CCCCN)C(=O)N[C@@H](CC(C)C)C(=O)N[C@@H](CC(C)C)C(=O)N[C@@H](CCC(N)=O)C(=O)N[C@@H](CC(=O)O)C(=O)N[C@H](C(=O)N[C@@H](Cc1c[nH]cn1)C(=O)N[C@@H](CC(N)=O)C(=O)N[C@@H](CCCCN)C(N)=O)C(C)C)C(C)C)[C@@H](C)CC [SEQ ID NO: 30, [Nle^8, β-hIle^18,1-Nal^23, Leu^27, Lys^34] hPTH (1-34)-NH2] (H-SVSEIQL[Nle]HNLGKHLNS[β3hI]ERVE[1Nal]LRKLLQDVHNK-NH2; N-terminus assumed)	7.77	10.00	173	–
